Reference: ChEMBL document CHEMBL5576124, “Discovery of an Exceptionally Orally Bioavailable and Potent HPK1 PROTAC with Enhancement of Antitumor Efficacy of Anti-PD-L1 Therapy” (J Med Chem, 2024)
The source made the active and inactive calls. No cut-off for these calls is given here.

Assays:
[1] = molecular target: T1, Protein cereblon/Mitogen-activated protein kinase kinase kinase kinase 1 (Homo sapiens, UniProt Q92918+Q96SW2); assay: PROTAC activity at CRBN/HPK1 in human Jurkat cells assessed as degradation of HPK1 protein at 1 uM preincubated with thalidomide followed by compound addition incubated for 24 hrs by Western blotting analysis; assay type: cell-based
T1 sequence (Q92918 whole entry, looked up): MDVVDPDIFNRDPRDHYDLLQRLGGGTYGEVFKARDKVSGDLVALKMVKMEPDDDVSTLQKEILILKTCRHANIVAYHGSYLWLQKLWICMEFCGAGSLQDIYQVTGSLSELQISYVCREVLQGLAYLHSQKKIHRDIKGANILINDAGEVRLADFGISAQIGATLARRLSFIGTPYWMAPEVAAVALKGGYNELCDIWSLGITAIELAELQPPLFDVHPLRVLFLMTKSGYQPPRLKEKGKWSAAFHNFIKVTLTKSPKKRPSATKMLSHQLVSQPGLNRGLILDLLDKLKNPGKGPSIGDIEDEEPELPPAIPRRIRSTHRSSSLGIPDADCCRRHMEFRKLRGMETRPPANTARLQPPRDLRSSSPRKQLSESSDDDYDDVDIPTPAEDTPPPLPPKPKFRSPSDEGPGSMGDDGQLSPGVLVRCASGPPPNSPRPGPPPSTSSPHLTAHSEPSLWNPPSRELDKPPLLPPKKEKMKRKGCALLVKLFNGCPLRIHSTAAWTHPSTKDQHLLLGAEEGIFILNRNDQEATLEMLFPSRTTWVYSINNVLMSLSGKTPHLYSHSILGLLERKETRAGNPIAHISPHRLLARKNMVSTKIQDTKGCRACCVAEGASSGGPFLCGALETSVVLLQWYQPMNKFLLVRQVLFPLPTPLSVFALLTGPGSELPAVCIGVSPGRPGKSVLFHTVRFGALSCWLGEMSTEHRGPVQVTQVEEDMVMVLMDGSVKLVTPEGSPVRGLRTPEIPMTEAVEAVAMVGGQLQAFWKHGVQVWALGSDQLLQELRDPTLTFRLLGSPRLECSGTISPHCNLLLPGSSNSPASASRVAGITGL
T1 sequence (Q96SW2 whole entry, looked up): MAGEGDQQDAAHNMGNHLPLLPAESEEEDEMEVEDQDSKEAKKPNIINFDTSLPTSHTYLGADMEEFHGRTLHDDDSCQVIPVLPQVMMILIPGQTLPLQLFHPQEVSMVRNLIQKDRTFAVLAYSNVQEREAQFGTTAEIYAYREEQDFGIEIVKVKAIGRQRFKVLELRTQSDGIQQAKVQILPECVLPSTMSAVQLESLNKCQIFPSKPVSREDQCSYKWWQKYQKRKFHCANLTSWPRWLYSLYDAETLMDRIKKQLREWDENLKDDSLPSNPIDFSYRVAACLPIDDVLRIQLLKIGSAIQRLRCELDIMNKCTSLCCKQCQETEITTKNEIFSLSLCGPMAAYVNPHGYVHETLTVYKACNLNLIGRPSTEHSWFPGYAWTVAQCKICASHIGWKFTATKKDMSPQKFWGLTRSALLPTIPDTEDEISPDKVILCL

[2] = Toxicity in BALB/c mouse implanted with mouse CT26 cells assessed as change in body weight at 25 mg/kg,po administrated once daily for 15 days; assay type: organism-based; settings: in vivo, 360 h, time 15 day
[3] = Bioavailability in ICR mouse at 10 mg/kg,po or 1 mg/kg,iv measured upto 24 hrs by LC-MS analysis; assay type: ADME, organism-based; settings: in vivo
[4] = test system: T-cell line; assay: Immunostimulatory activity in human T cell assessed as increase in IL-2 secretion at 10 uM relative to control; assay type: functional
[5] = Stability in mouse liver microsomes assessed as parent compound remaining measured after 15 mins; assay type: ADME, Microsome; settings: read-out: Stability
[6] = test system: T-cell line; assay: Immunostimulatory activity in human T cell assessed as increase in IL-2 secretion; assay type: functional, cell-based
[7] = Stability in mouse liver microsomes assessed as parent compound remaining measured after 5 mins; assay type: ADME, Microsome; settings: read-out: Stability
[8] = test system: Jurkat; assay: Immunostimulatory activity in anti-CD3/CD28 induced human Jurkat cells assessed as increase in IL-2 release incubated for 24 hrs by ELISA; assay type: functional, cell-based
[9] = test system: CT26; assay: Antitumor activity against mouse CT26 cells implanted BALB/c mouse model assessed as tumor growth inhibition at 25 mg/kg,po administrated once daily for 15 days in presence of anti-PD-L1 antibody relative to control; assay type: functional; settings: CT26, 360 h, time 15 day, read-out: TGI
[10] = molecular target: T1, Protein cereblon/Mitogen-activated protein kinase kinase kinase kinase 1; assay: PROTAC activity at CRBN/HPK1 in human Jurkat cells assessed as degradation of HPK1 protein at 1 uM preincubated with MLN4924 followed by compound addition incubated for 24 hrs by Western blotting analysis; assay type: cell-based
[11] = test system: Jurkat; assay: Antiproliferative activity against human Jurkat cells assessed as inhibition of cell growth at 4 to 10000 nM incubated for 3 days by CCK-8 assay; assay type: functional, cell-based; settings: dose 4-10000 nM, time 3.0 day
[12] = Metabolic stability in mouse liver microsomes assessed as intrinsic clearance; assay type: ADME, Microsome; settings: read-out: CLH
[13] = test system: Jurkat; assay: Immunostimulatory activity in anti-CD3/CD28 induced human Jurkat cells assessed as increase in IL-2 release at 10 to 10000 nM incubated for 24 hrs in presence of PGE2 and NECA by ELISA; assay type: functional, cell-based; settings: dose 10-10000 nM
[14] = test system: T-cell line; assay: Immunostimulatory activity in human T cell assessed as fold increase in IL-2 secretion; assay type: functional
[15] = molecular target: T1, Protein cereblon/Mitogen-activated protein kinase kinase kinase kinase 1; assay: PROTAC activity at CRBN/HPK1 in human Jurkat cells assessed as upregulation of HGK expression by Western blotting analysis; assay type: cell-based
[16] = test system: Jurkat; assay: Immunostimulatory activity in anti-CD3/CD28 induced human Jurkat cells assessed as downregulation of NF-kappaB expression by Western blotting analysis; assay type: functional, cell-based
[17] = Tmax in ICR mouse at 10 mg/kg,po measured upto 24 hrs by LC-MS analysis; assay type: ADME, organism-based; settings: in vivo
[18] = Metabolic stability in human liver microsomes assessed as intrinsic clearance; assay type: ADME, Microsome; settings: read-out: CLH
[19] = molecular target: T1, Protein cereblon/Mitogen-activated protein kinase kinase kinase kinase 1; assay: PROTAC activity at CRBN/HPK1 in human Jurkat cells assessed as downregulation of PFDN5 expression by Western blotting analysis; assay type: cell-based
[20] = test system: Jurkat; assay: Immunostimulatory activity in anti-CD3/CD28 induced human Jurkat cells assessed as increase in IFN-gamma at 10 to 10000 nM incubated for 24 hrs in presence of PGE2 and NECA by ELISA; assay type: functional, cell-based; settings: dose 10-10000 nM
[21] = molecular target: T1, Protein cereblon/Mitogen-activated protein kinase kinase kinase kinase 1; assay: PROTAC activity at CRBN/HPK1 in human Jurkat cells assessed as degradation of HPK1 protein by Western blotting analysis; assay type: cell-based
[22] = Metabolic stability in mouse liver microsomes assessed as microsomal intrinsic clearance; assay type: ADME, Microsome; settings: read-out: CLH
[23] = molecular target: T1, Protein cereblon/Mitogen-activated protein kinase kinase kinase kinase 1; assay: PROTAC activity at CRBN/HPK1 in human Jurkat cells assessed as maximal degradation of HPK1 protein at 1 uM incubated for 24 hrs by Western blotting analysis relative to control; assay type: cell-based
[24] = MRT in Sprague-Dawley rat at 10 mg/kg,po measured upto 24 hrs by LC-MS analysis; assay type: ADME, organism-based; settings: in vivo
[25] = test system: Jurkat; assay: Immunostimulatory activity in anti-CD3/CD28 induced human Jurkat cells assessed as upregulation of JNK phosphorylation by Western blotting analysis; assay type: functional, cell-based
[26] = test system: Jurkat; assay: Immunostimulatory activity in anti-CD3/CD28 induced human Jurkat cells assessed as downregulation of SLP76 expression by Western blotting analysis; assay type: functional, cell-based
[27] = Stability in mouse liver microsomes assessed as parent compound remaining; assay type: ADME, Microsome
[28] = Cmax in Sprague-Dawley rat at 10 mg/kg,po measured upto 24 hrs by LC-MS analysis; assay type: ADME, organism-based; settings: in vivo
[29] = Metabolic stability in mouse liver microsomes assessed as hepatic extraction ratio; assay type: ADME, Microsome; settings: read-out: ERH
[30] = test system: CT26; assay: Antitumor activity against mouse CT26 cells implanted BALB/c mouse model assessed as tumor growth inhibition at 25 mg/kg,po administrated once daily for 15 days relative to control; assay type: functional; settings: CT26, 360 h, time 15 day, read-out: TGI
[31] = molecular target: T1, Protein cereblon/Mitogen-activated protein kinase kinase kinase kinase 1; assay: PROTAC activity at CRBN/HPK1 in human Jurkat cells assessed as downregulation of GLK expression by Western blotting analysis; assay type: cell-based
[32] = Cmax in ICR mouse at 1 mg/kg,iv measured upto 24 hrs by LC-MS analysis; assay type: ADME, organism-based; settings: in vivo
[33] = molecular target: Mitogen-activated protein kinase kinase kinase kinase 1 (Homo sapiens, UniProt Q92918); assay: Inhibition of HPK1 (unknown origin)
Sequence of Mitogen-activated protein kinase kinase kinase kinase 1 (Q92918 whole entry): as the sequence (Q92918 whole entry, looked up) above

[34] = molecular target: T1, Protein cereblon/Mitogen-activated protein kinase kinase kinase kinase 1; assay: PROTAC activity at CRBN/HPK1 in human Jurkat cells assessed as upregulation of PCGF6 expression by Western blotting analysis; assay type: cell-based
[35] = AUC (0 to t) in ICR mouse at 1 mg/kg,iv measured upto 24 hrs by LC-MS analysis; assay type: ADME, organism-based; settings: in vivo
[36] = molecular target: T1, Protein cereblon/Mitogen-activated protein kinase kinase kinase kinase 1; assay: PROTAC activity at CRBN/HPK1 in human Jurkat cells assessed as upregulation of GCK expression by Western blotting analysis; assay type: cell-based
[37] = Cmax in ICR mouse at 10 mg/kg,po measured upto 24 hrs by LC-MS analysis; assay type: ADME, organism-based; settings: in vivo
[38] = Stability in human liver microsomes assessed as parent compound remaining measured after 30 mins; assay type: ADME, Microsome; settings: read-out: Stability
[39] = molecular target: T1, Protein cereblon/Mitogen-activated protein kinase kinase kinase kinase 1; assay: PROTAC activity at CRBN/HPK1 in human Jurkat cells assessed as maximal degradation of HPK1 protein incubated for 24 hrs by Western blotting analysis relative to control; assay type: cell-based
[40] = Metabolic stability in human liver microsomes assessed as half life; assay type: ADME, Microsome
[41] = Stability in human liver microsomes assessed as parent compound remaining measured after 15 mins; assay type: ADME, Microsome; settings: read-out: Stability
[42] = test system: Jurkat; assay: Immunostimulatory activity in anti-CD3/CD28 induced human Jurkat cells assessed as downregulation of SLP76 phosphorylation by Western blotting analysis; assay type: functional, cell-based
[43] = test system: Jurkat; assay: Immunostimulatory activity in anti-CD3/CD28 induced human Jurkat cells assessed as upregulation of JNK expression by Western blotting analysis; assay type: functional, cell-based
[44] = Half life in Sprague-Dawley rat at 10 mg/kg,po measured upto 24 hrs by LC-MS analysis; assay type: ADME, organism-based; settings: in vivo
[45] = test system: Jurkat; assay: Immunostimulatory activity in anti-CD3/CD28 induced human Jurkat cells assessed as upregulation of ERK expression by Western blotting analysis; assay type: functional, cell-based

## Cc1cc(-c2c[nH]c3ncc(-c4ccc(C5CCN(C6CN(c7ccc8c(c7)C(=O)N(C7CCC(=O)NC7=O)C8=O)C6)CC5)cc4)nc23)ccc1C(=O)N(C)C (stereo not given)
[1]
  Activity: Active
[2]
  Activity: Non-Toxic
[3]
  bioavailability: 81.7%
[4]
  Activity: 2361.07%
[5]
  remaining at 0.25 h: 85.5%
[6]
  EC50: 12.9 nM
[7]
  remaining at 5 min: 100%
[8]
  Activity: Dose-Dependent Effect
[9]
  inhibition in vivo at 25 mg/kg: 65.6%
[10]
  Activity: inactive
[11]
  Activity: inactive
[12]
  microsomal CLint: 18.4 µL/min/mg
[13]
  Activity: inactive
[14]
  fold change (FC): 70
[15]
  Activity: inactive
[16]
  Activity: Active
[17]
  Tmax: 4 h
[18]
  microsomal CLint: 1.4 µL/min/mg
[19]
  Activity: Active
[20]
  Activity: inactive
[21]
  Activity: Active
[22]
  CLint scaled: 16.6 mL/min/kg
[23]
  Activity: 100%
[24]
  MRT: 9.62 h
[25]
  Activity: Active
[26]
  Activity: Active
[27]
  Stability: 100%
[28]
  Cmax: 2090 ng/mL
[29]
  hepatic extraction ratio: 0.444
[30]
  inhibition in vivo at 25 mg/kg: 47.2%
[31]
  Activity: Active
[32]
  Cmax: 3000 ng/mL
[33]
  IC50: 30.9 nM
[34]
  Activity: Active
[35]
  AUC(0-t) at 24 h: 16800 ng·h/mL
[36]
  Activity: inactive
[37]
  Cmax: 10900 ng/mL
[38]
  remaining at 0.5 h: 98.3%
[39]
  Emax: 80.5%
[40]
  half-life: 16.5 h
[41]
  remaining at 0.25 h: 101%
[42]
  Activity: Active
[43]
  Activity: Active
[44]
  half-life: 6.58 h
[45]
  Activity: Active
